Here are results for 20 compounds from patent US7994185B2, “Benzene sulfonamide thiazole and oxazole compounds” (Glaxo Smith Kline LLC, priority 2008, dated 2011).

SMILES strings stand for the structures. Where a name gives a salt, the structure may show the parent alone. Read-outs that look alike come from different tables or passages of the source. Some results are limits rather than exact numbers.

For assay [1], the target named is T1, BRAFV600E full-length (amino acids 2-766) (Homo sapiens, UniProt P15056, V600E).
T1 construct: His6-tagged BRAFV600E full-length (amino acids 2-766); His6; made in house; host or cells: baculovirus expression system (insect cells)
T1 sequence (P15056 2-766 V600E): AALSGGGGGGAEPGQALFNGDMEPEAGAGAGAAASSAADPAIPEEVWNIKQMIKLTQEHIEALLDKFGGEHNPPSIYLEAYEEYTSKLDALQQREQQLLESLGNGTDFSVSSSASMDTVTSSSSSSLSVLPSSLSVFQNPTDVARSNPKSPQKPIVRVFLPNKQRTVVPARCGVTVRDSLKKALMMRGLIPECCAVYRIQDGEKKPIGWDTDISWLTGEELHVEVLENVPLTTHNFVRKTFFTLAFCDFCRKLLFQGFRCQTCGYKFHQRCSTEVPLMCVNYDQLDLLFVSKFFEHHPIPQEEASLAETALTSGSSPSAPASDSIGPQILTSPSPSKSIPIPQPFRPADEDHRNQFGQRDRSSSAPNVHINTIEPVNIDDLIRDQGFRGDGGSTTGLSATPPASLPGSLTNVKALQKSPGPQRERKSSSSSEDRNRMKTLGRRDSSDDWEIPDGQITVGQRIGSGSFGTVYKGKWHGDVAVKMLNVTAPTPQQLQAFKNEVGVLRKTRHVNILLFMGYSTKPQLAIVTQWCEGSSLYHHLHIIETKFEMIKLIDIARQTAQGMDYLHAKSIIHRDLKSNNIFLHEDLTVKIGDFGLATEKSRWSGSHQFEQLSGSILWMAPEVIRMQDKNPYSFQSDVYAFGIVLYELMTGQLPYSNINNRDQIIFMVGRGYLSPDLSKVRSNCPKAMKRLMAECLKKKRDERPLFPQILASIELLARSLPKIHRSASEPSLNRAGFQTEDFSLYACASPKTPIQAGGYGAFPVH
Briefly: B-Raf Accelerated MEK ATPase assay (BRAMA). The format is biochemical. The following applies: categorized. The protocol: Compounds of the present invention were tested for B-Raf protein serine kinase inhibitory activity in a B-Raf Accelerated MEK ATPase assay (BRAMA). […] The BRAMA assay is a high sensitivity assay which measures an intrinsic MEK-mediated ATP hydrolysis uncoupled from downstream ERK phosphorylation by coupling the formation of ADP to NADH oxidation through the enzymes pyruvate kinase and lactate dehydrogenase. When ADP production is initiated by addition of catalytic amounts of an activated Raf enzyme and non-phosphorylated MEK, one observes robust ADP production concomitant with Raf-mediated phosphorylation of MEK. The method is disclosed in: C. Rominger, M. Schaber, E. May. Assay for B-Raf Activity Based on Intrinsic MEK ATPase Activity.

Assay [2] concerns Human colon tumor cells (Colo205). Briefly: Cell growth inhibition assay (CellTiter-Glo), Colo205. The format is cell-based. How it is done:
Human colon tumor cells (Colo205) were cultured in RPMI (Mediatech 50-020-PB) containing 10% FBS and 1% penicillin-streptomycin.
The next day, compounds were diluted as follow: For 96-well assays, 13.5 μL of compound in DMSO were diluted using nine (9) serial 1:3 dilutions of 4.5 μL in 9 μL of DMSO. Medium (270 μL/well of RPMI with 10% FBS and 1% penicillin-streptomycin) was added to the plates. Aliquots (7 μL) were added to cells in the final assay giving a final DMSO concentration of 0.2%. For 384-well assays, 15 μL of compound in DMSO were diluted using nine (9) serial 1:3 dilutions of 5 μL in 10 μL of DMSO, followed by a further dilution of 5 μL of compound with 95 μL of medium, of which 2 μL were added to cells in the final assay giving a final DMSO concentration of 0.2%. Cells were incubated at 37° C., 5% CO2 for 3 days.
Total ATP was measured (as a surrogate estimate of cell number) using CellTiter-Glo® reagent (Promega G7571). Briefly, plates were removed from the incubator and allowed to equilibrate to room temperature for 30 minutes. CellTiter-Glo® (25 μL or 55 μL for 384-well or 96-well assays, respectively) reagent was added to each well and plates were shaken on an orbital plate shaker for 2 minutes. Plates were incubated without shaking for a further 30 minutes and read on an LJL Analyst GT reader in luminometer mode with an integration time of 0.5 seconds per well. Percent inhibition of cell growth was calculated relative to DMSO vehicle-treated control wells.
(Cellular ATP, detected with luciferase, serves as a proxy for viable cell number.)

Assay [3] relates to Human melanoma cancer cells (SK-MEL-28). The experiment in a line: Cell growth inhibition assay (CellTiter-Glo), SK-MEL-28. The format is cell-based.
[4] abbreviates: B-Raf Activity, Table 1a, highest pIC50 for the one or more runs.
Where [5] appears, read: B-Raf pIC50, Table 1b, later runs, average pIC50 for the one or more runs.
[6] abbreviates: COLO 205, 72 h, Table 2a, 3 days incubation, read-out: Activity in Colo205 Tumor Cells.
Setting [7] is: COLO 205, Table 2b, later runs, average for the one or more runs, categorized, read-out: IC50 for Colo205.
The mark [8] stands for this setting: SK-MEL-28, 72 h, Table 3a, 3 days incubation, read-out: Activity in SK-MEL-28 Tumor Cells.
Where [9] appears, read: SK-MEL-28, Table 3b, later runs, average for the one or more runs, categorized, read-out: IC50 for SK-MEL-28.
The mark [10] stands for this setting: Table 1b, later runs, average pIC50 for the one or more runs, read-out: B-Raf pIC50 (converted).

For `Nc1nccc(-c2sc(N3CCOCC3)nc2-c2c(F)ccc(NS(=O)(=O)c3cc(F)ccc3F)c2F)n1` [Example 105, N-{3-[5-(2-Amino-4-pyrimidinyl)-2-(4-morpholinyl)-1,3-thiazol-4-yl]-2,4-difluorophenyl}-2,5-difluorobenzenesulfonamide], the IC50 in assay [1] (setting [4]) is less than 100 nM; in assay [1] (setting [5]), not above 3.16 nM; in assay [2] (setting [6]), less than 100 nM; in assay [2] (setting [7]), less than 100 nM; in assay [3] (setting [8]), less than 100 nM; in assay [3] (setting [9]), less than 100 nM.

Turning to `Nc1nccc(-c2sc(N3CCOCC3)nc2-c2cccc(NS(=O)(=O)c3cc(F)ccc3F)c2)n1` [Example 200], the IC50 in assay [1] (setting [4]) was less than 100 nM; in assay [1] (setting [10]), 3.16 to 31.6 nM; in assay [2] (setting [6]), 100 to 1000 nM; in assay [2] (setting [7]) it was 100 to 1000 nM; in assay [3] (setting [8]), 100 to 1000 nM; in assay [3] (setting [9]) it was 100 to 1000 nM.

Regarding `CC(C)CNc1nccc(-c2sc(C(C)(C)C)nc2-c2cccc(NS(=O)(=O)c3cc(F)ccc3F)c2F)n1` [Example 92, N-[3-(2-(1,1-Dimethylethyl)-5-{2-[(2-methylpropyl)amino]-4-pyrimidinyl}-1,3-thiazol-4-yl)-2-fluorophenyl]-2,5-difluorobenzenesulfonamide], the IC50 in assay [1] (setting [4]) is less than 100 nM; in assay [1] (setting [10]) it was 3.16 to 31.6 nM; in assay [2] (setting [6]), less than 100 nM; in assay [2] (setting [7]), less than 100 nM; in assay [3] (setting [8]), less than 100 nM; in assay [3] (setting [9]), less than 100 nM.

Take `CC(C)Nc1nccc(-c2sc(C(C)(C)C)nc2-c2cccc(NS(=O)(=O)c3c(F)cccc3F)c2F)n1` [Example 135]: the IC50 in assay [1] (setting [4]) is less than 100 nM; in assay [1] (setting [5]), not above 3.16 nM; in assay [2] (setting [6]), 100 to 1000 nM; in assay [2] (setting [7]), 100 to 1000 nM; in assay [3] (setting [8]) it was less than 100 nM; in assay [3] (setting [9]) it was less than 100 nM.

`Nc1nccc(-c2sc(C3CCOCC3)nc2-c2ccc(F)c(NS(=O)(=O)c3cc(F)ccc3F)c2)n1` [Example 68, N-{5-[5-(2-Amino-4-pyrimidinyl)-2-(tetrahydro-2H-pyran-4-yl)-1,3-thiazol-4-yl]-2-fluorophenyl}-2,5-difluorobenzenesulfonamide]: the IC50 in assay [1] (setting [4]) is 100 to 1000 nM; in assay [1] (setting [5]), 31.6 to 1000 nM; in assay [2] (setting [6]) it was more than 1000 nM; in assay [2] (setting [7]) it was 1000 to 10000 nM; in assay [3] (setting [8]), more than 1000 nM; in assay [3] (setting [9]), 1000 to 10000 nM.

On to `C[C@@H]1CN(c2nc(-c3cccc(NS(=O)(=O)c4c(F)cccc4F)c3F)c(-c3ccnc(N)n3)s2)C[C@H](C)O1` [Example 143], for which the IC50 is less than 100 nM in assay [1] (setting [4]); 3.16 to 31.6 nM in assay [1] (setting [10]); 100 to 1000 nM in assay [2] (setting [6]); 100 to 1000 nM in assay [2] (setting [7]); 100 to 1000 nM in assay [3] (setting [8]); 100 to 1000 nM in assay [3] (setting [9]).

For `Cc1ccc(S(=O)(=O)Nc2cccc(-c3nc(C(C)(C)C)sc3-c3ccnc(N)n3)c2F)cc1` [Example 146], the IC50 in assay [1] (setting [4]) was less than 100 nM; in assay [1] (setting [5]) it was 31.6 to 1000 nM; in assay [2] (setting [6]), 100 to 1000 nM; in assay [2] (setting [7]) it was 100 to 1000 nM; in assay [3] (setting [8]) it was 100 to 1000 nM; in assay [3] (setting [9]), 100 to 1000 nM.

As for `COc1ccc(F)cc1S(=O)(=O)Nc1cccc(-c2nc(C(C)C)sc2-c2ccnc(NC3CCN(S(C)(=O)=O)CC3)n2)c1F` [Example 153], the IC50 was less than 100 nM in assay [1] (setting [4]); 3.16 to 31.6 nM in assay [1] (setting [10]); less than 100 nM in assay [2] (setting [6]); less than 100 nM in assay [2] (setting [7]); less than 100 nM in assay [3] (setting [8]); less than 100 nM in assay [3] (setting [9]).

In the case of `Nc1nccc(-c2sc(C3CCOCC3)nc2-c2cccc(NS(=O)(=O)c3ccoc3)c2Cl)n1` [Example 265, N-{3-[5-(2-amino-4-pyrimidinyl)-2-(tetrahydro-2H-pyran-4-yl)-1,3-thiazol-4-yl]-2-chlorophenyl}-3-furansulfonamide], the IC50 in assay [1] (setting [5]) is not above 3.16 nM; in assay [3] (setting [9]) it was less than 100 nM.

Turning to `CN(C)c1nc(-c2cccc(NS(=O)(=O)c3c(F)cccc3F)c2)c(-c2ccnc(N)n2)s1` [Example 112, N-{3-[5-(2-Amino-4-pyrimidinyl)-2-(dimethylamino)-1,3-thiazol-4-yl]phenyl}-2,6-difluorobenzenesulfonamide], the IC50 lay in the range of 100 to 1000 nM in assay [1] (setting [4]), 31.6 to 1000 nM in assay [1] (setting [5]) and 1000 to 10000 nM in assay [2] (setting [7]).

For the compound `O=S(=O)(Nc1cccc(-c2nc(C3CCOCC3)sc2-c2ccnc(NCCN3CCOCC3)n2)c1F)c1ccoc1` [Example 307, N-{2-fluoro-3-[5-(2-{[2-(4-morpholinyl)ethyl]amino}-4-pyrimidinyl)-2-(tetrahydro-2H-pyran-4-yl)-1,3-thiazol-4-yl]phenyl}-3-furansulfonamide], the IC50 in assay [1] (setting [5]) was not above 3.16 nM.

On to `CC(=O)NCc1nccc(-c2sc(N3CCOCC3)nc2-c2cccc(NS(=O)(=O)c3cc(F)ccc3F)c2F)n1` [Example 276, N-({4-[4-(3-{[(2,5-difluorophenyl)sulfonyl]amino}-2-fluorophenyl)-2-(4-morpholinyl)-1,3-thiazol-5-yl]-2-pyrimidinyl}methyl)acetamide], for which the IC50 in assay [1] (setting [10]) was 3.16 to 31.6 nM.

In the case of `Cc1nccc(-c2sc(C3CCOCC3)nc2-c2cccc(NS(=O)(=O)c3ccoc3)c2F)n1` [Example 314, N-{2-fluoro-3-[5-(2-methyl-4-pyrimidinyl)-2-(tetrahydro-2H-pyran-4-yl)-1,3-thiazol-4-yl]phenyl}-3-furansulfonamide], the IC50 in assay [1] (setting [10]) is 3.16 to 31.6 nM.

`Cc1nccc(-c2sc(C3(C)CCNCC3)nc2-c2cccc(NS(=O)(=O)c3ccoc3)c2F)n1` [Example 320, N-{2-fluoro-3-[2-(4-methyl-4-piperidinyl)-5-(2-methyl-4-pyrimidinyl)-1,3-thiazol-4-yl]phenyl}-3-furansulfonamide] displayed an IC50 in assay [1] (setting [5]) not above 3.16 nM.

`Cn1ccc(S(=O)(=O)Nc2cccc(-c3nc(C(C)(C)C)sc3-c3ccnc(N)n3)c2F)n1` [Example 288, N-{3-[5-(2-amino-4-pyrimidinyl)-2-(1,1-dimethylethyl)-1,3-thiazol-4-yl]-2-fluorophenyl}-1-methyl-1H-pyrazole-3-sulfonamide hydrochloride]: the IC50 in assay [1] (setting [5]) lay in the range of 31.6 to 1000 nM.

On to `CC(C)c1nc(-c2ccc(F)c(NS(=O)(=O)c3cccc(F)c3)c2)c(-c2ccnc(N)n2)s1` [Example 84, N-{5-[5-(2-Amino-4-pyrimidinyl)-2-(1-methylethyl)-1,3-thiazol-4-yl]-2-fluorophenyl}-3-fluorobenzenesulfonamide], for which the results for the IC50 in assay [1] (setting [4]) and in assay [1] (setting [5]) were 100 to 1000 nM and 31.6 to 1000 nM, respectively.

For the compound `CC(C)c1nc(-c2ccc(F)c(NS(=O)(=O)c3c(F)cccc3F)c2)c(-c2ccnc(NCCCN(C)C)n2)s1` [Example 169], the IC50 in assay [1] (Table 1a, highest pIC50 for the one or more runs, read-out: B-Raf Activity) was more than 1000 nM.

Regarding `Cc1nccc(-c2sc(C3CCOCC3)nc2-c2cccc(NS(=O)(=O)c3c(F)cccc3F)c2F)n1` [Example 315, 2,6-difluoro-N-{2-fluoro-3-[5-(2-methyl-4-pyrimidinyl)-2-(tetrahydro-2H-pyran-4-yl)-1,3-thiazol-4-yl]phenyl}benzenesulfonamide], the IC50 in assay [1] (setting [10]) is 3.16 to 31.6 nM.

In turn, `CCN(CC)CCNc1nccc(-c2sc(C3CCOCC3)nc2-c2cccc(NS(=O)(=O)c3ccoc3)c2F)n1` [Example 301, N-{3-[5-(2-{[2-(diethylamino)ethyl]amino}-4-pyrimidinyl)-2-(tetrahydro-2H-pyran-4-yl)-1,3-thiazol-4-yl]-2-fluorophenyl}-3-furansulfonamide] registered an IC50 in assay [1] (setting [5]) not above 3.16 nM.

As for `Cc1nccc(-c2sc(C(C)(C)CO)nc2-c2cccc(NS(=O)(=O)c3c(F)cccc3F)c2F)n1` [Example 316, 2,6-difluoro-N-{2-fluoro-3-[2-(2-hydroxy-1,1-dimethylethyl)-5-(2-methyl-4-pyrimidinyl)-1,3-thiazol-4-yl]phenyl}benzenesulfonamide], the IC50 in assay [1] (setting [10]) is 3.16 to 31.6 nM.
